These results are taken from patent publication US8962639B2, “Potassium channel modulators” (AbbVie Inc., priority 2009, dated 2015).

SMILES strings stand for the structures.

This assay has as its target T1, human KCNQ2 and KCNQ3 (Homo sapiens, UniProt O43525+O43526).
T1 construct: expressed in transfected cells; host or cells: HEK293
The experiment in a line: KCNQ 2/3 channel activation, thallium flux FLIPR assay (BTC-AM dye) in HEK293 cells. The format is cell-based. Particulars: for Emax: HEK293, maximum response relative to response of retigabine at 10 μM set at 100%, read-out: Max response; for EC50: HEK293 cells stably expressing human KCNQ2 and KCNQ3, compound incubated 4 minutes, Tl+ flux fluorescence; for Max response: maximum response relative to response of retigabine at 10 μM set at 100%. The protocol:
The following example describes the assay that can be used to identify compounds that activate KCNQ 2/3 channels.
HEK293 cells stably expressing human KCNQ2 and KCNQ3 were seeded in 96-well, black-walled, clear-bottomed, poly-D-lysine coated plates (BD Biosciences, Bedford, Mass.) at a density of 1×10^5 cells per well 24 hours before the assay. On the assay day, BTC-AM dye (Invitrogen, Carlsbad, Calif.) was loaded into the cells by replacing the cell culture medium with 100 μL/well of 4 μM dye in DPBS. Dye loading was allowed to proceed for 2 hours at room temperature and then cells were washed twice in 100 μL/well of assay buffer (in mM: 10 HEPES pH 7.3, 5 glucose, 140 Na-gluconate, 2.5 K-gluconate, 3.6 Ca-gluconate, 2 MgSO4, 0.1 Ouabain) to remove unloaded dye. Cells were incubated in 50 μL of assay buffer before loading onto a FLIPR system (Molecular Devices, Sunnyvale, Calif.). Various concentrations of compounds to be assayed were added to the cells in 50 μL of assay buffer and incubated for 4 minutes. The fluorescence signal was initiated by adding 100 μL of assay buffer containing 6 mM TlNO3 and 10 mM K2SO4. Fluors were excited using the 488-nm line of an argon laser and emission was filtered using a 540±30 nm bandpass filter. Fluorescent signals were recorded for 3 minutes. Responses over baseline values were plotted versus concentrations of test compounds to obtain an EC50 value. The maximum response for each test compound was determined relative to the response produced at 10 μM by retigabine. The maximum response of retigabine at 10 μM was set at 100%.

T1 sequence (O43526 whole entry): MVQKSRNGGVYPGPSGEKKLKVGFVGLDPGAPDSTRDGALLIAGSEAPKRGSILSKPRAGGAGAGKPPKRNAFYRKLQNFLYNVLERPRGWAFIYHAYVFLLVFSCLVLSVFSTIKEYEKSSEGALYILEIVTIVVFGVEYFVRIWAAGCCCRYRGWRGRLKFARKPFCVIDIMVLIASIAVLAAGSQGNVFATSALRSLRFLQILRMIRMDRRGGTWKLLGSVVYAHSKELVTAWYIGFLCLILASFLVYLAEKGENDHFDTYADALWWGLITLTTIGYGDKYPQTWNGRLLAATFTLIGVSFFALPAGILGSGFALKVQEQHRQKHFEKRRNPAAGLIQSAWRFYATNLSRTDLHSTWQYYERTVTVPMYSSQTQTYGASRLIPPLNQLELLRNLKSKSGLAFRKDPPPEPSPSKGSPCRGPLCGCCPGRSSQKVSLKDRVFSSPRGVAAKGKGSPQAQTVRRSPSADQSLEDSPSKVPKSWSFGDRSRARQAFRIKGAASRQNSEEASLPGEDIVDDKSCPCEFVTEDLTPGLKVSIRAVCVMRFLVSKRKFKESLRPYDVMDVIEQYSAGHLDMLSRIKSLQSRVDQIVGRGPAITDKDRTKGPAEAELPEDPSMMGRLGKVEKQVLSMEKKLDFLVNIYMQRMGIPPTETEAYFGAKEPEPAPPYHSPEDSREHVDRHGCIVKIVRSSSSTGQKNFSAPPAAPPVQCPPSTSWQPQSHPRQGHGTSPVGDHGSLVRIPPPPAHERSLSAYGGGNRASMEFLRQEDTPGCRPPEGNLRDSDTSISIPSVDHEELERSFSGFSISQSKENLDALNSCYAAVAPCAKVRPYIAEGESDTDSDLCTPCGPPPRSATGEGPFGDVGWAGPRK
T1 sequence (O43525 whole entry): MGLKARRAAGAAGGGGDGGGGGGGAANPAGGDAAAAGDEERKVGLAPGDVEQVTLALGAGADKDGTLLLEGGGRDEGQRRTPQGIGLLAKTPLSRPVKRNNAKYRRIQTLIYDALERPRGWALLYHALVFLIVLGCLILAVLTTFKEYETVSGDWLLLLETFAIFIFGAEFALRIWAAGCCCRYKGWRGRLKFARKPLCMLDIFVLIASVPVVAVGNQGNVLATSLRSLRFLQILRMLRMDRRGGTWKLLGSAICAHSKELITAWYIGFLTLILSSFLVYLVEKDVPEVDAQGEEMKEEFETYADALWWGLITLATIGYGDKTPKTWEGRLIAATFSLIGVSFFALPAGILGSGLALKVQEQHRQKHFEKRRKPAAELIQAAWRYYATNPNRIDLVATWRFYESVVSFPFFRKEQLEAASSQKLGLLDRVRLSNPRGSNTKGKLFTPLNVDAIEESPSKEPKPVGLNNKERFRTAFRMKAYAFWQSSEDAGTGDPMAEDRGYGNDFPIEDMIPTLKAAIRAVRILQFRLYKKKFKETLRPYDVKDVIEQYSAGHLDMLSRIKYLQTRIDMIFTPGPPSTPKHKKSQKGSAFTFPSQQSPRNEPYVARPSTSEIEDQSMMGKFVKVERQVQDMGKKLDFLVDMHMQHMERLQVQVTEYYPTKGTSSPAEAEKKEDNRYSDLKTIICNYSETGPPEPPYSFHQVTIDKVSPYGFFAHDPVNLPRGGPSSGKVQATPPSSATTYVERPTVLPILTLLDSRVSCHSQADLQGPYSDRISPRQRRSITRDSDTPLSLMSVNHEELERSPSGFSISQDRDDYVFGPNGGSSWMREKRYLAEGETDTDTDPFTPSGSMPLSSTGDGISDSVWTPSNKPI

For `O=C(CC12CC3CC(CC(Cl)(C3)C1)C2)Nn1c(C2CC2)nc2cc(C(F)(F)F)ccc2c1=O` [Example 50, 2-[3-chloro-1-adamantyl]-N-[2-cyclopropyl-4-oxo-7-(trifluoromethyl)quinazolin-3(4H)-yl]acetamide], the Emax was -0.535% and the 50% effective concentration (EC50) (usually the concentration that produces a half-maximal response) is above 31.6 µM.
Taken in the same sequence, the figures for `O=C(CC12CC3CC(CC(C3)C1)C2)Nn1c(-c2ccccc2)nc2ccccc2c1=O` [Example 6, 2-(1-adamantyl)-N-(4-oxo-2-phenylquinazolin-3(4H)-yl)acetamide] were 103% and 0.341 µM.
Regarding `O=C(Nn1c(-c2ccccc2)nc2ccccc2c1=O)[C@H]1C[C@@H]2C=C[C@H]1C2` (racemic) [Example 34, (±)-(exo)-N-(4-oxo-2-phenylquinazolin-3(4 H)-yl)bicyclo[2.2.1]hept-5-ene-2-carboxamide], the Emax turned out to be 4.46% and the concentration giving a half-maximal response (EC50) was 17.3 µM.
Taken in the same sequence, the figures for `CC(C)c1nc2ccccc2c(=O)n1NC(=O)[C@@H]1C[C@@H]2C=C[C@H]1C2` (racemic) [Example 31, (±)-(endo)-N-(2-isopropyl-4-oxoquinazolin-3(4H)-yl)bicyclo[2.2.1]hept-5-ene-2-carboxamide] were 140% and 0.415 µM.
Taken in the same sequence, the figures for `Cc1nc2sc3c(c2c(=O)n1NC(=O)CC12CC4CC(CC(C4)C1)C2)CCC3` [Example 45, 2-(1-adamantyl)-N-(2-methyl-4-oxo-6,7-dihydro-4H-cyclopenta[4,5]thieno[2,3-d]pyrimidin-3(5H)-yl)acetamide] were 19.6% and above 31.6 µM.
As for `O=C(CC12CC3CC(CC(C3)C1)C2)Nn1cnc2ccc(Br)cc2c1=O` [Example 36, 2-(1-adamantyl)-N-(6-bromo-4-oxoquinazolin-3(4H)-yl)acetamide], the Emax was 10.8% and the EC50 is above 30 µM.
For the compound `O=C(CC12CC3CC(CC(C3)C1)C2)Nn1c(=O)[nH]c2ccccc2c1=O` [Example 28, 2-(1-adamantyl)-N-(2,4-dioxo-1,4-dihydroquinazolin-3(2H)-yl)acetamide], the Emax was determined as 93.3% and the midpoint of the response, the EC50, lay at 1.75 µM.
As for `O=C(Cc1ccc(Cl)cc1)Nn1c(C23CC4CC(CC2C4)C3)nc2ccccc2c1=O` [Example 2, 2-(4-chlorophenyl)-N-(2-hexahydro-2,5-methanopentalen-3a(1H)-yl-4-oxoquinazolin-3(4H)-yl)acetamide], the Emax worked out at 140% and the response was half-maximal at 0.198 µM (EC50).
As to `CCc1nc2ccccc2c(=O)n1NC(=O)C12CC3CC(CC(C3)O1)C2` [Example 54, N-(2-ethyl-4-oxoquinazolin-3(4H)-yl)-2-oxatricyclo[3.3.1.1^3,7]decane-1-carboxamide], the Emax came to 5.5% and the concentration giving a half-maximal response (EC50) is above 31.6 µM.
Taken in the same sequence, the figures for `CC(=O)Nn1c(C23CC4CC(CC2C4)C3)nc2ccccc2c1=O` [Example 4, N-(2-hexahydro-2,5-methanopentalen-3a(1H)-yl-4-oxoquinazolin-3(4H)-yl)acetamide] were 60.4% and 2.72 µM.
`O=C(Nn1c(-c2ccccc2)nc2ccccc2c1=O)[C@@H]1C[C@@H]2C=C[C@H]1C2` (racemic) [Example 33, (±)-(endo)-N-(4-oxo-2-phenylquinazolin-3(4H)-yl)bicyclo[2.2.1]hept-5-ene-2-carboxamide]: the Emax stood at 65.4% and a half-maximal response (EC50) required 0.84 µM.
Take `CC(C)c1nc2ccccc2c(=O)n1NC(=O)CC1CC2CCC1C2` (single isomer, unassigned; (-)) [Example 29, (−)-exo-2-[bicyclo[2.2.1]hept-2-yl]-N-(2-isopropyl-4-oxoquinazolin-3(4H)-yl)acetamide]: the Emax came out at 136% and the EC50 is 0.0167 µM.
In the case of `CCc1nc2ccccc2c(=O)n1NC(=O)[C@@H]1[C@H]2[C@@H]3CC[C@@H](C3)[C@@H]12` [Example 58, (exo,exo)-N-(2-ethyl-4-oxoquinazolin-3(4H)-yl)tricyclo[3.2.1.0^2,4]octane-3-carboxamide], the Emax worked out at 11.6% and the 50% effective concentration (EC50) is above 31.6 µM.
On to `O=C(Nn1c(-c2ccccc2)nc2ccccc2c1=O)C1C2CC3CC(C2)CC1C3` (stereo not drawn) [Example 38, N-(4-oxo-2-phenylquinazolin-3(4H)-yl)adamantane-2-carboxamide], for which the Emax was -43.5% and the EC50 is above 30 µM.
Taken in the same sequence, the figures for `CC(C)c1nc2ccccc2c(=O)n1NC(=O)[C@@H]1[C@H]2[C@@H]3CC[C@@H](C3)[C@@H]12` [Example 59, (exo,exo)-N-(2-isopropyl-4-oxoquinazolin-3(4H)-yl)tricyclo[3.2.1.0^2,4]octane-3-carboxamide] were 16.5% and above 31.6 µM.
`CC(C)c1nc2ccccc2c(=O)n1NC(=O)CC1CC2CCC1C2` (racemic) [Example 42, (±)-2-[(endo)-bicyclo[2.2.1]hept-2-yl]-N-(2-isopropyl-4-oxoquinazolin-3(4H)-yl)acetamide]: a half-maximal effect (EC50) was put at 0.0868 µM and the Max response turned out to be 150%.
As for `CC(C)c1nc2ccccc2c(=O)n1NC(=O)CC12CC3CC(CC(Cl)(C3)C1)C2` [Example 21, 2-[3-chloro-1-adamantyl]-N-(2-isopropyl-4-oxoquinazolin-3(4H)-yl)acetamide], the Emax was 132% and the EC50 was 0.403 µM.
Taken in the same sequence, the figures for `CCc1cc2c(=O)n(NC(=O)CC34CC5CC(CC(C5)C3)C4)cnc2s1` [Example 20, 2-(1-adamantyl)-N-(6-ethyl-4-oxothieno[2,3-d]pyrimidin-3(4H)-yl)acetamide] were 139% and 0.438 µM.
Taken in the same sequence, the figures for `O=C(CC12CC3CC(CC(C3)C1)C2)Nn1cnc2sc(-c3ccccc3)cc2c1=O` [Example 37, 2-(1-adamantyl)-N-(4-oxo-6-phenylthieno[2,3-d]pyrimidin-3(4H)-yl)acetamide] were 9.51% and above 30 µM.
Taken in the same sequence, the figures for `CCc1nc2sccc2c(=O)n1NC(=O)CC12CC3CC(CC(C3)C1)C2` [Example 14, 2-(1-adamantyl)-N-(2-ethyl-4-oxothieno[2,3-d]pyrimidin-3(4H)-yl)acetamide] were 120% and 0.691 µM.
`O=C(CC12CC3CC(CC(C3)C1)C2)Nn1c(COc2ccccc2)nc2ccccc2c1=O` [Example 25, 2-(1-adamantyl)-N-[4-oxo-2-(phenoxymethyl)quinazolin-3(4H)-yl]acetamide]: the Emax is 118% and a half-maximal effect (EC50) was put at 3.01 µM.
Taken in the same sequence, the figures for `O=C(Nn1c(-c2ccccc2)nc2ccccc2c1=O)C1CC2CCC1C2` (racemic) [Example 23, (±)-endo-N-(4-oxo-2-phenylquinazolin-3(4H)-yl)bicyclo[2.2.1]heptane-2-carboxamide] were 34.3% and 0.54 µM.
Compound `CC(C)c1nc2ccccc2c(=O)n1NC(=O)CC1CC2CCC1C2` (single isomer, unassigned; (+)) [Example 30, (+)-exo-2-[bicyclo[2.2.1]hept-2-yl]-N-(2-isopropyl-4-oxoquinazolin-3(4H)-yl)acetamide] showed a half-maximal effective concentration (EC50) of 0.0477 µM and a Max response of 145%.
On to `O=C(CC1CC2CCC1C2)Nn1c(-c2ccccc2)nc2ccccc2c1=O` (racemic) [Example 12, (±)-exo-2-bicyclo[2.2.1]hept-2-yl-N-(4-oxo-2-phenylquinazolin-3(4H)-yl)acetamide], for which the Emax came to 176% and the EC50 came to 0.535 µM.
Taken in the same sequence, the figures for `O=C(CC12CC3CC(CC(C3)C1)C2)Nn1cnc2ccc(Cl)cc2c1=O` [Example 16, 2-(1-adamantyl)-N-(6-chloro-4-oxoquinazolin-3(4H)-yl)acetamide] were 32.1% and 0.261 µM.
Taken in the same sequence, the figures for `CC(C)c1nc2ccccc2c(=O)n1NC(=O)CCC12CC3CC(CC(C3)C1)C2` [Example 13, 3-(1-adamantyl)-N-(2-isopropyl-4-oxoquinazolin-3(4H)-yl)propanamide] were 172% and 0.399 µM.
Take `O=C(CC1CC2CCC1C2)Nn1cnc2ccccc2c1=O` (racemic) [Example 10, (±)-exo-2-bicyclo[2.2.1]hept-2-yl-N-(4-oxoquinazolin-3(4H)-yl)acetamide]: the Emax was found to be 131% and the EC50 was determined as 4.95 µM.
Taken in the same sequence, the figures for `CC(C)c1nc2ccccc2c(=O)n1NC(=O)CC1C2CC3CC(C2)CC1C3` (stereo not drawn) [Example 1, 2-(2-adamantyl)-N-(2-isopropyl-4-oxoquinazolin-3(4H)-yl)acetamide] were 88.8% and 0.138 µM.
For `CC(C)c1nc2ccccc2c(=O)n1NC(=O)CC12CC3CC(CC(C3)C1)C2` [Example 5, 2-(1-adamantyl)-N-(2-isopropyl-4-oxoquinazolin-3(4H)-yl)acetamide], the Emax worked out at 122% and a half-maximal effect (EC50) was put at 0.148 µM.
Taken in the same sequence, the figures for `O=C(CC12CC3CC(CC(Cl)(C3)C1)C2)Nn1c(C2CC2)nc2ccccc2c1=O` [Example 51, 2-[3-chloro-1-adamantyl]-N-(2-cyclopropyl-4-oxoquinazolin-3(4H)-yl)acetamide] were 152% and 0.16 µM.
